Laboratory results taken from US10023602B2, “Hamamelitannin analogues and uses thereof” (Universiteit Gent, priority 2014, dated 2018).

Tests used:
[1] = tested on: methicillin resistant S. aureus Mu50 strain (S. aureus ATCC700699) biofilm; assay: Biofilm susceptibility to vancomycin, pre-treatment regimen (biofilm formed in presence of compound, then vancomycin); assay type: cell-based; conditions: for Pretreat. (25 μM): percentage Colony Forming Units (CFU's) per biofilm: compound 25 μM during biofilm formation; for Pretreat. (25 μM): percentage Colony Forming Units (CFU's) per biofilm / Pretreat (100 μM): percentage Colony Forming Units (CFU's) per biofilm: then VAN 20 μg/ml, compared to the untreated (negative) control; for EC50: concentration needed to get 50% killing compared to antibiotic alone (VAN 20 μg/ml) and complete killing, read-out: Pretreat. (EC50); for Pretreat (100 μM): percentage Colony Forming Units (CFU's) per biofilm: compound 100 μM during biofilm formation
Method in brief: (§1)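 Mu50 biofilms from 10^8 CFU/ml inoculum (4 h adhesion, then 20 h, 37 °C). Pre-treatment: compound (0.1-250 μM) present during biofilm formation, then vancomycin 20 μg/ml alone 24 h; combination: mature biofilm given vancomycin 20 μg/ml plus compound 24 h. Survivors counted by plating versus vancomycin alone.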

[2] = tested on: methicillin resistant S. aureus Mu50 strain (S. aureus ATCC700699) biofilm; assay: Biofilm susceptibility to vancomycin, combination treatment regimen (mature biofilm treated with compound plus vancomycin); assay type: cell-based; conditions: for Combin. (25 μM): percentage Colony Forming Units (CFU's) per biofilm: compound 25 μM together with VAN 20 μg/ml on mature biofilm; for Combin. (25 μM): percentage Colony Forming Units (CFU's) per biofilm / Combin. (100 μM): percentage Colony Forming Units (CFU's) per biofilm: compared to the untreated (negative) control; for EC50: concentration needed to get 50% killing compared to antibiotic alone (VAN 20 μg/ml) and complete killing, read-out: Combin. (EC50); for Combin. (100 μM): percentage Colony Forming Units (CFU's) per biofilm: compound 100 μM together with VAN 20 μg/ml on mature biofilm
Method in brief: as §1

Q: What does the source list for `Cc1ccccc1C(=O)NC[C@]1(O)CO[C@H](CNC(=O)c2ccccc2Cl)[C@H]1O` [compound 244, 2-chloro-N-(((2R,3R,4S)-3,4-dihydroxy-4-((2-methylbenzamido)methyl)tetrahydrofuran-2-yl)methyl)benzamide]?
A: Pretreat. (25 μM): percentage Colony Forming Units (CFU's) per biofilm [1]: 41.07 percentage; EC50 [1]: 56.4 µM; Combin. (25 μM): percentage Colony Forming Units (CFU's) per biofilm [2]: 54.77 percentage; EC50 [2]: 124 µM

Q: Which “Pretreat. (25 μM): percentage Colony Forming Units (CFU's) per biofilm” value [1] does the source give for `O=C(NC[C@]1(O)CO[C@H](CNC(=O)c2ccccc2Cl)[C@H]1O)c1ccccc1F` [compound 245, 2-chloro-N-(((2R,3R,4S)-4-((2-fluorobenzamido)methyl)-3,4-dihydroxytetrahydrofuran-2-yl)methyl)benzamide] here?
A: Its value is 61.75 percentage.

Q: And the EC50 [1]?
A: Its EC50 is 48.6 µM.

Q: What about the “Combin. (25 μM): percentage Colony Forming Units (CFU's) per biofilm” value [2] of the same compound?
A: Its value is 44.14 percentage.

Q: And the EC50 [2]?
A: The EC50 was 62.2 µM.

Q: Which “Pretreat. (25 μM): percentage Colony Forming Units (CFU's) per biofilm” value [1] does the source give for `O=C(NC[C@]1(O)CO[C@H](CNC(=O)c2ccccc2Cl)[C@H]1O)c1ccco1` [compound 246, N-(((3S,4R,5R)-5-((2-chlorobenzamido)methyl)-3,4-dihydroxytetrahydrofuran-3-yl)methyl)furan-2-carboxamide] here?
A: The value was 87.98 percentage.

Q: And the “Combin. (25 μM): percentage Colony Forming Units (CFU's) per biofilm” value [2]?
A: The value was 62.82 percentage.

Q: What does the source list for `O=C(NC[C@]1(O)CO[C@H](CNC(=O)c2ccccc2Cl)[C@H]1O)c1ccoc1` [compound 247, N-(((3S,4R,5R)-5-((2-chlorobenzamido)methyl)-3,4-dihydroxytetrahydrofuran-3-yl)methyl)furan-3-carboxamide]?
A: Pretreat. (25 μM): percentage Colony Forming Units (CFU's) per biofilm [1]: 42.14 percentage; EC50 [1]: 68.5 µM; Combin. (25 μM): percentage Colony Forming Units (CFU's) per biofilm [2]: 49.94 percentage; EC50 [2]: 76.7 µM

Q: Which “Pretreat. (25 μM): percentage Colony Forming Units (CFU's) per biofilm” value [1] does the source give for `O=C(NC[C@]1(O)CO[C@H](CNC(=O)c2ccccc2Cl)[C@H]1O)c1cncnc1` [compound 248, N-(((3S,4R,5R)-5-((2-chlorobenzamido)methyl)-3,4-dihydroxytetrahydrofuran-3-yl)methyl)pyrimidine-5-carboxamide] here?
A: Its value is 64.01 percentage.

Q: What about the “Combin. (25 μM): percentage Colony Forming Units (CFU's) per biofilm” value [2] of the same compound?
A: Its value is 65.41 percentage.

Q: Which results are given for `O=C(NC[C@H]1OC[C@@](O)(CNC(=O)c2ccccc2Cl)[C@@H]1O)c1ccccc1Cl` [compound 249, N,N′-(((2R,3R,4S)-3,4-dihydroxytetrahydrofuran-2,4-diyl)bis(methylene))bis(2-chlorobenzamide)]?
A: Pretreat (100 μM): percentage Colony Forming Units (CFU's) per biofilm [1]: 6.67 percentage; EC50 [1]: 5.36 µM; Combin. (100 μM): percentage Colony Forming Units (CFU's) per biofilm [2]: 13.59 percentage; EC50 [2]: 28.4 µM

Q: What does the source list for `O=C(NC[C@H]1OC[C@@](O)(CNC(=O)c2ccccc2Cl)[C@@H]1O)c1ccc(-c2ccccc2)cc1` [compound 250, N-(((2R,3R,4S)-4-((2-chlorobenzamido)methyl)-3,4-dihydroxytetrahydrofuran-2-yl)methyl)-[1,1′-biphenyl]-4-carboxamide]?
A: Pretreat (100 μM): percentage Colony Forming Units (CFU's) per biofilm [1]: 18.82 percentage; EC50 [1]: 23 µM; Combin. (100 μM): percentage Colony Forming Units (CFU's) per biofilm [2]: 29.48 percentage; EC50 [2]: 61.3 µM

Q: Which results are given for `O=C(NC[C@H]1OC[C@@](O)(CNC(=O)c2ccccc2Cl)[C@@H]1O)c1ccnnc1` [compound 251, N-(((2R,3R,4S)-4-((2-chlorobenzamido)methyl)-3,4-dihydroxytetrahydrofuran-2-yl)methyl)pyridazine-4-carboxamide]?
A: Pretreat (100 μM): percentage Colony Forming Units (CFU's) per biofilm [1]: 3.85 percentage; EC50 [1]: 3.38 µM; Combin. (100 μM): percentage Colony Forming Units (CFU's) per biofilm [2]: 37.03 percentage; EC50 [2]: 98.9 µM

Q: `O=C(NC[C@]1(O)CO[C@H](CNC(=O)c2ccccc2Cl)[C@H]1O)c1ccc(-c2ccccc2)cc1` [compound 252, N-(((3S,4R,5R)-5-((2-chlorobenzamido)methyl)-3,4-dihydroxytetrahydrofuran-3-yl)methyl)-[1,1′-biphenyl]-4-carboxamide] was tested. Which “Pretreat (100 μM): percentage Colony Forming Units (CFU's) per biofilm” value [1] did it give?
A: The value was 2.25 percentage.

Q: And the EC50 [1]?
A: The EC50 was 11.8 µM.

Q: What about the “Combin. (100 μM): percentage Colony Forming Units (CFU's) per biofilm” value [2] of the same compound?
A: Its value is 29.40 percentage.

Q: What about the EC50 [2] of the same compound?
A: The EC50 was 69.2 µM.
